Results as given in patent US20250186453A1, “COMBINATION THERAPIES COMPRISING A SOS1 INHIBITOR AND A MEK INHIBITOR” (Mirati Therapeutics, Inc., priority 2022, published 2025).

How the values were obtained:
[1] = tested on: NCI-H1435 cells harboring NF1 K615N mutation; experiment: NCI-H1435 tumor xenograft model, SOS1 inhibitor - MEK inhibitor combination; assay type: in vivo, nude/nude mice; conditions: for tumor growth inhibition: NCI-H1435 tumors, day 27, single agent, MRTX0902 50 mg/kg twice daily, VS-6766 0.3 mg/kg twice daily Monday, Wednesday, Friday; for Average Tumor Volumes of NCI-H1435 Tumor Bearing Mice: p.o., MRTX0902 50 mg/kg BID, VS-6766 0.3 mg/kg BID MWF (Q2D), mean of 5 mice
Description: (§1) Immunocompromised nude/nude mice are inoculated in the right hind flank with NCI-H1435 cells harboring NF1 K615N mutation. When tumor volumes reach approximately 150 mm3 in size, the mice are divided into four groups of 5 mice each. The first group is administered vehicle only. […] The fourth group is administered a single agent dose of the SOS1 inhibitor in combination with a single agent dose of the MEK inhibitor. The treatment period was 27 days. Tumor volumes are measured using a caliper every two—three days and tumor volumes are calculated by the formula: 0.5×(Length×Width)2.
20 nude/nude mice were inoculated in the right hind limb with 5×10^6 NCI-H1435 cells. When tumor volume reached ˜150 mm3 (Study Day 0), 5 mice in each of the four groups were administered p.o. daily for 27 days: vehicle only (0.5% MC (4000 cps)/0.2% Tween80 in water), 50 mg/kg BID of the SOS1 inhibitor (R)-2-methyl-3-(1-((4-methyl-7-morpholinopyrido[3,4-d]pyridazin-1-yl)amino)ethyl)benzonitrile (MRTX0902) (0.5% MC (4000 cps)/0.2% Tween80 in water), 0.3 mg/kg BID Q2D of MEK inhibitor VS-6766 (5% DMSO, 10% HPCD in water), or 50 mg/kg BID MRTX0902 and 0.3 mg/kg BID Q2D VS-6766. Tumor volumes, measured at pre-specified days, for the five mice per group were averaged and are reported for NCI-H1435 cells in Table 2 and FIG. 2.

[2] = tested on: LN229 cells harboring the A72S mutation (PTPN11 A72S); experiment: LN229 tumor xenograft model, SOS1 inhibitor - MEK inhibitor combination; assay type: in vivo, nude/nude mice; conditions: for tumor growth inhibition: LN229 tumors, day 28, single agent, MRTX0902 50 mg/kg twice daily, VS-6766 0.3 mg/kg twice daily Monday, Wednesday, Friday; for Average Tumor Volumes of LN229 Tumor Bearing Mice: p.o., MRTX0902 50 mg/kg BID, VS-6766 0.3 mg/kg BID MWF (Q2D), mean of 5 mice
Description: as §1, with “with LN229” for “with NCI-H1435”, “harboring the A72S” for “harboring NF1 K615N”, “administered the” for “administered a”, “with the” for “with a”, “was 28” for “was 27”
[0153]20 nude/nude mice were inoculated in the right hind limb with 5×10^6 LN229 cells. When tumor volume reached ˜150 mm3 (Study Day 0), 5 mice in each of the four groups were administered p.o. daily for 28 days: vehicle only (0.5% MC (4000 cps)/0.2% Tween80 in water), 50 mg/kg BID of the SOS1 inhibitor (R)-2-methyl-3-(1-((4-methyl-7-morpholinopyrido[3,4-d]pyridazin-1-yl)amino)ethyl)benzonitrile (MRTX0902) (0.5% MC (4000 cps)/0.2% Tween80 in water), 0.3 mg/kg BID Q2D of MEK inhibitor VS-6766 (5% DMSO, 10% HPCD in water), or 50 mg/kg BID MRTX0902 and 0.3 mg/kg BID Q2D. Tumor volumes, measured at pre-specified days, for the five mice per group were averaged and are reported for LN229 cells in Table 1 and FIG. 1.

SMILES | tumor growth inhibition [1] [%] | Average Tumor Volumes of NCI-H1435 Tumor Bearing Mice ([1]; Study Day 0 (start of dosing)) [mm^3] | Average Tumor Volumes of NCI-H1435 Tumor Bearing Mice ([1]; Study Day 3) [mm^3] | Average Tumor Volumes of NCI-H1435 Tumor Bearing Mice ([1]; Study Day 6) [mm^3] | Average Tumor Volumes of NCI-H1435 Tumor Bearing Mice ([1]; Study Day 10) [mm^3] | Average Tumor Volumes of NCI-H1435 Tumor Bearing Mice ([1]; Study Day 13) [mm^3] | Average Tumor Volumes of NCI-H1435 Tumor Bearing Mice ([1]; Study Day 17) [mm^3] | Average Tumor Volumes of NCI-H1435 Tumor Bearing Mice ([1]; Study Day 20) [mm^3] | Average Tumor Volumes of NCI-H1435 Tumor Bearing Mice ([1]; Study Day 24) [mm^3] | Average Tumor Volumes of NCI-H1435 Tumor Bearing Mice ([1]; Study Day 27) [mm^3] | tumor growth inhibition [2] [%] | Average Tumor Volumes of LN229 Tumor Bearing Mice ([2]; Study Day 0 (start of dosing)) [mm^3] | Average Tumor Volumes of LN229 Tumor Bearing Mice ([2]; Study Day 4) [mm^3] | Average Tumor Volumes of LN229 Tumor Bearing Mice ([2]; Study Day 7) [mm^3] | Average Tumor Volumes of LN229 Tumor Bearing Mice ([2]; Study Day 12) [mm^3] | Average Tumor Volumes of LN229 Tumor Bearing Mice ([2]; Study Day 15) [mm^3] | Average Tumor Volumes of LN229 Tumor Bearing Mice ([2]; Study Day 18) [mm^3] | Average Tumor Volumes of LN229 Tumor Bearing Mice ([2]; Study Day 25) [mm^3] | Average Tumor Volumes of LN229 Tumor Bearing Mice ([2]; Study Day 28) [mm^3]
Cc1c(C#N)cccc1[C@@H](C)Nc1nnc(C)c2cnc(N3CCOCC3)cc12 [MRTX0902, (R)-2-methyl-3-(1-((4-methyl-7-morpholinopyrido[3,4-d]pyridazin-1-yl)amino)ethyl)benzonitrile] | 49.8 | 164 | 241 | 292 | 333 | 417 | 437 | 474 | 583 | 608 | 37.6 | 151 | 174 | 199 | 248 | 310 | 374 | 462 | 525
CNS(=O)(=O)Nc1nccc(Cc2c(C)c3ccc(Oc4ncccn4)cc3oc2=O)c1F [VS-6766, 3-[[3-fluoro-2-(methylsulfamoylamino)pyridin-4-yl]methyl]-4-methyl-7-pyrimidin-2-yloxychromen-2-one] | 76.4 | 166 | 254 | 296 | 307 | 281 | 286 | 322 | 349 | 371 | 92.5 | 151 | 143 | 137 | 120 | 140 | 186 | 225 | 196
